Values quoted from earlier work as cited in patent publication US10507188B2, “Particles containing an opioid receptor antagonist and methods of use” (priority 2008, dated 2019).

Details: white crystalline powder, typically the bromide salt (Mallinckrodt)

For `C[N+]1(CC2CC2)CCC23c4c5ccc(O)c4OC2C(=O)CCC3(O)C1C5` (stereo not shown) [MNTX, N-methylnaltrexone], the solubility in water is listed as “freely soluble in water”.
